# Measured values: patent publication US20220110919A1, “METHODS OF MODULATING LEUKOCYTES ACTIVATION AND THROMBOCYTE CLEARANCE WITH INHIBITORS OF SPECIFIC NEURAMINIDASE ISOENZYMES” (The Governors of the University of Alberta, priority 2018, published 2022)
# Tested on: reticulated platelets
# Assay: Passive Antibody Transfer Model of ITP (immunothrombocytopenia)
# Assay type: in vivo
# Settings: C57Bl/6NCrI mice, anti-CD41 antibody; daily intraperitoneal 30 μg/kg vs saline
# Excerpt: The Passive Antibody Transfer Model of ITP has been extensively used to understand the progression of chronic ITP and to rapidly evaluate the efficacy of various therapeutics (Neschadim et al., 2015). The model is characterized by a rapid onset of the ITP and clear involvement of phagocytic monocytes in platelet destruction. In addition, it provides a possibility to use self-antigens relevant to the human condition. Depending on the type, quantity, and frequency of the administered antibody it is possible to vary the severity and the persistence of the induced ITP by fine-tuning the rate and the level of platelet decline whereas the repeated administration of the monoclonal antibody simulates chronic human IT.
# Female 6-week old C57Bl/6NCrI mice and genetically-modified C57Bl/6NCrI mice with neu1 deficiency (Passive Antibody Transfer Model of ITP, Neschadim et al., 2015) received escalating daily doses (68 μg/kg on the 1st and 2d days, 102 μg/kg on the third day) of anti-CD41 anti-platelet monoclonal mouse antibody (clone MWReg30) by intraperitoneal injection. The reticulated platelets were measured daily for three days by flow cytometric analysis. Control mice (C57B16) received injections of saline. […]
structure (smiles),measurement,value
"CCCCC(=O)NCC(O)C(O)C1OC(C(=O)O)=CC(O)[C@H]1NC(C)=O (stereo partly drawn) [compound 50, 5-Acetamido-9-pentanamido-2,6-anhydro-3,5-dideoxy-D-glycero-D-galacto-non-2-enonic acid]",platelet reduction rate,lower platelet reduction rates
